In the NIST ThermoML archive (doi:10.1021/je060415l):
Numbers after ± are expanded uncertainties.

Conditions: Liquid, expansion method

CO [methanol]
Conditions	isothermal compressibility
208.17 K, 390 kPa	7.15e-07 ± 4.1e-08 1/kPa
208.17 K, 2110 kPa	6.78e-07 ± 4e-08 1/kPa
208.17 K, 5020 kPa	6.63e-07 ± 4e-08 1/kPa
208.17 K, 7970 kPa	6.47e-07 ± 3.9e-08 1/kPa
208.17 K, 10910 kPa	6.37e-07 ± 3.9e-08 1/kPa
208.17 K, 13880 kPa	6.24e-07 ± 3.9e-08 1/kPa
208.17 K, 16980 kPa	6.12e-07 ± 3.9e-08 1/kPa
208.17 K, 20090 kPa	6.02e-07 ± 3.8e-08 1/kPa
208.17 K, 23230 kPa	5.9e-07 ± 3.8e-08 1/kPa
208.17 K, 30160 kPa	5.68e-07 ± 3.8e-08 1/kPa
208.17 K, 33540 kPa	5.57e-07 ± 3.8e-08 1/kPa
208.17 K, 37190 kPa	5.46e-07 ± 3.7e-08 1/kPa
208.17 K, 41120 kPa	5.34e-07 ± 3.7e-08 1/kPa
208.17 K, 45130 kPa	5.26e-07 ± 3.7e-08 1/kPa
208.17 K, 49210 kPa	5.15e-07 ± 3.7e-08 1/kPa
208.17 K, 53370 kPa	5.04e-07 ± 3.7e-08 1/kPa
208.17 K, 57610 kPa	4.95e-07 ± 3.6e-08 1/kPa
208.17 K, 61920 kPa	4.85e-07 ± 3.6e-08 1/kPa
208.17 K, 66300 kPa	4.78e-07 ± 3.6e-08 1/kPa
208.17 K, 70740 kPa	4.7e-07 ± 3.6e-08 1/kPa
208.17 K, 75250 kPa	4.6e-07 ± 3.6e-08 1/kPa
208.17 K, 79850 kPa	4.53e-07 ± 3.6e-08 1/kPa
208.17 K, 84300 kPa	4.48e-07 ± 3.6e-08 1/kPa
208.17 K, 88600 kPa	4.41e-07 ± 3.6e-08 1/kPa
208.17 K, 92960 kPa	4.35e-07 ± 3.6e-08 1/kPa
208.17 K, 97910 kPa	4.18e-07 ± 3.5e-08 1/kPa
223.17 K, 1060 kPa	7.59e-07 ± 4.2e-08 1/kPa
223.17 K, 3160 kPa	7.44e-07 ± 4.1e-08 1/kPa
223.17 K, 5540 kPa	7.28e-07 ± 4.1e-08 1/kPa
223.17 K, 8010 kPa	7.14e-07 ± 4.1e-08 1/kPa
223.17 K, 10640 kPa	7.01e-07 ± 4e-08 1/kPa
223.17 K, 13500 kPa	6.84e-07 ± 4e-08 1/kPa
223.17 K, 16660 kPa	6.62e-07 ± 4e-08 1/kPa
223.17 K, 19820 kPa	6.59e-07 ± 4e-08 1/kPa
223.17 K, 22850 kPa	6.45e-07 ± 3.9e-08 1/kPa
223.17 K, 25930 kPa	6.33e-07 ± 3.9e-08 1/kPa
223.17 K, 29040 kPa	6.2e-07 ± 3.9e-08 1/kPa
223.17 K, 32210 kPa	6.08e-07 ± 3.9e-08 1/kPa
223.17 K, 35450 kPa	5.98e-07 ± 3.8e-08 1/kPa
223.17 K, 38770 kPa	5.87e-07 ± 3.8e-08 1/kPa
223.17 K, 42230 kPa	5.74e-07 ± 3.8e-08 1/kPa
223.17 K, 45780 kPa	5.66e-07 ± 3.8e-08 1/kPa
223.17 K, 49400 kPa	5.55e-07 ± 3.8e-08 1/kPa
223.17 K, 53080 kPa	5.45e-07 ± 3.7e-08 1/kPa
223.17 K, 56960 kPa	5.3e-07 ± 3.7e-08 1/kPa
223.17 K, 61040 kPa	5.23e-07 ± 3.7e-08 1/kPa
223.17 K, 65060 kPa	5.15e-07 ± 3.7e-08 1/kPa
223.17 K, 69050 kPa	5.06e-07 ± 3.7e-08 1/kPa
223.17 K, 73000 kPa	4.98e-07 ± 3.7e-08 1/kPa
223.17 K, 76980 kPa	4.9e-07 ± 3.6e-08 1/kPa
223.17 K, 81110 kPa	4.82e-07 ± 3.6e-08 1/kPa
223.17 K, 85330 kPa	4.72e-07 ± 3.6e-08 1/kPa
223.17 K, 89630 kPa	4.66e-07 ± 3.6e-08 1/kPa
223.17 K, 94200 kPa	4.54e-07 ± 3.6e-08 1/kPa
223.17 K, 98850 kPa	4.51e-07 ± 3.6e-08 1/kPa
248.19 K, 1680 kPa	8.6e-07 ± 4.4e-08 1/kPa
248.19 K, 4590 kPa	8.53e-07 ± 4.4e-08 1/kPa
248.19 K, 7250 kPa	8.36e-07 ± 4.4e-08 1/kPa
248.19 K, 9880 kPa	8.18e-07 ± 4.3e-08 1/kPa
248.19 K, 12580 kPa	8.01e-07 ± 4.3e-08 1/kPa
248.19 K, 15470 kPa	7.74e-07 ± 4.2e-08 1/kPa
248.19 K, 18450 kPa	7.62e-07 ± 4.2e-08 1/kPa
248.19 K, 21360 kPa	7.48e-07 ± 4.2e-08 1/kPa
248.19 K, 24330 kPa	7.3e-07 ± 4.1e-08 1/kPa
248.19 K, 27310 kPa	7.19e-07 ± 4.1e-08 1/kPa
248.19 K, 30180 kPa	7.07e-07 ± 4.1e-08 1/kPa
248.19 K, 33000 kPa	6.92e-07 ± 4e-08 1/kPa
248.19 K, 35670 kPa	6.84e-07 ± 4e-08 1/kPa
248.19 K, 38600 kPa	6.64e-07 ± 4e-08 1/kPa
248.19 K, 41780 kPa	6.56e-07 ± 4e-08 1/kPa
248.19 K, 44760 kPa	6.45e-07 ± 3.9e-08 1/kPa
248.19 K, 47880 kPa	6.33e-07 ± 3.9e-08 1/kPa
248.19 K, 51230 kPa	6.19e-07 ± 3.9e-08 1/kPa
248.19 K, 54640 kPa	6.09e-07 ± 3.9e-08 1/kPa
248.19 K, 57930 kPa	5.99e-07 ± 3.8e-08 1/kPa
248.19 K, 61270 kPa	5.85e-07 ± 3.8e-08 1/kPa
248.19 K, 64800 kPa	5.75e-07 ± 3.8e-08 1/kPa
248.19 K, 68310 kPa	5.66e-07 ± 3.8e-08 1/kPa
248.19 K, 71740 kPa	5.57e-07 ± 3.8e-08 1/kPa
248.19 K, 75070 kPa	5.49e-07 ± 3.7e-08 1/kPa
248.19 K, 78410 kPa	5.41e-07 ± 3.7e-08 1/kPa
248.19 K, 81890 kPa	5.31e-07 ± 3.7e-08 1/kPa
248.19 K, 85380 kPa	5.25e-07 ± 3.7e-08 1/kPa
248.19 K, 88990 kPa	5.18e-07 ± 3.7e-08 1/kPa
248.19 K, 92540 kPa	5.18e-07 ± 3.7e-08 1/kPa
248.19 K, 96400 kPa	5e-07 ± 3.7e-08 1/kPa
248.19 K, 100840 kPa	4.9e-07 ± 3.6e-08 1/kPa
263.17 K, 1420 kPa	9.64e-07 ± 4.7e-08 1/kPa
263.17 K, 3920 kPa	9.42e-07 ± 4.6e-08 1/kPa
263.17 K, 6360 kPa	9.2e-07 ± 4.6e-08 1/kPa
263.17 K, 8840 kPa	9.02e-07 ± 4.5e-08 1/kPa
263.17 K, 11360 kPa	8.82e-07 ± 4.5e-08 1/kPa
263.17 K, 13920 kPa	8.62e-07 ± 4.4e-08 1/kPa
263.17 K, 16580 kPa	8.42e-07 ± 4.4e-08 1/kPa
